Reference: ChEMBL document CHEMBL4414591, “Isolation and Total Synthesis of Mabuniamide, a Lipopeptide from an Okeania sp. Marine Cyanobacterium” (J Nat Prod, 2019)

Columns and labels:
Plasmodium falciparum = test: Antiprotozoal activity against erythrocytic stage of Plasmodium falciparum 3D7 incubated for 72 hrs by lactate dehydrogenase assay; assay type: functional, organism-based; conditions: 3D7, 72 h
L6 [1] = test: Induction of glucose uptake in rat L6 cells incubated for 22 hrs in presence of glucose by microplate reader assay; assay type: functional, cell-based
L6 [2] = test: Cytotoxicity against rat L6 cells assessed as decrease in cell viability at 10 to 40 uM incubated for 22 hrs by MTT assay; assay type: cell-based; conditions: l6, 22 h

| IC50 (Plasmodium falciparum) [nM] | SMILES | Activity (L6 [1]) | Activity (L6 [2]) |
| --- | --- | --- | --- |
| 2800 | CCCC(=O)N(C)[C@@H](C)C(=O)N1CCC[C@H]1C(=O)N(C)[C@H](Cc1ccccc1)C(=O)N[C@@H](CC(C)C)C(=O)N(C)[C@@H](C(=O)N[C@H](C(=O)NCC(=O)N(C)[C@@H](Cc1ccccc1)C(=O)N1CCC[C@H]1C(=O)OC)C(C)C)C(C)C |  |  |
|  | CCCC(=O)N(C)[C@@H](C)C(=O)N1CCC[C@H]1C(=O)N(C)[C@@H](Cc1ccccc1)C(=O)N[C@@H](CC(C)C)C(=O)N(C)[C@@H](C(=O)N[C@H](C(=O)NCC(=O)N(C)[C@H](Cc1ccccc1)C(=O)N1CCC[C@H]1C(=O)OC)C(C)C)C(C)C (stereo in doubt; form 2) | Dose-dependent effect |  |
| 1400 | CCCC(=O)N(C)[C@@H](C)C(=O)N1CCC[C@H]1C(=O)N(C)[C@@H](Cc1ccccc1)C(=O)N[C@@H](CC(C)C)C(=O)N(C)[C@@H](C(=O)N[C@H](C(=O)NCC(=O)N(C)[C@H](Cc1ccccc1)C(=O)N1CCC[C@H]1C(=O)OC)C(C)C)C(C)C (stereo in doubt; form 1) [listing 1 of 2 here] |  | Non-Toxic |
|  | CCCC(=O)N(C)[C@@H](C)C(=O)N1CCC[C@H]1C(=O)N(C)[C@@H](Cc1ccccc1)C(=O)N[C@@H](CC(C)C)C(=O)N(C)[C@@H](C(=O)N[C@H](C(=O)NCC(=O)N(C)[C@H](Cc1ccccc1)C(=O)N1CCC[C@H]1C(=O)OC)C(C)C)C(C)C (stereo in doubt; form 1) [listing 2 of 2 here] | Dose-dependent effect |  |
